Results from patent US11123320B2, “Prophylactic or therapeutic agent for hyperaciive bladder” (SBI PHARMACEUTICALS CO., LTD., priority 2017, dated 2021).

Legend:
[1] = test system: overactive bladder model rats (SHR); test: Urination kinetics measurement with a metabolic cage; format: in vivo, rat; conditions: male SHR, vs saline control
Description: Twelve weeks old male SHR (spontaneously hypertension rata) were employed as experimental rats, and the experimental groups were divided into groups I-III by ALA administration conditions below. For experimental group II, ALA and sodium ferrous citrate were orally administered on experiment start day. The dosage of ALA was set at 10 mg/kg of body weight and sodium ferrous citrate was set at 15.7 mg/kg of body weight. On the other hand, for experimental group III, ALA was set at 100 mg/kg of body weight and sodium ferrous citrate was set at 157 mg/kg of body weight. Note that for control group I, saline only at an amount equal to ALA was administered instead of ALA and sodium ferrous citrate.
For control group I, saline was orally administered every day from experiment start day (12 weeks old) to week 6 (18 weeks old).
For experimental groups II and III, ALA and sodium ferrous citrate was orally administered every day from experiment start day (12 weeks old) to week 6 (18 weeks old).
For each experimental group, urination kinetics measurement with a metabolic cage was performed. Specifically, measurements were performed at 12 weeks old (before ALA administration) and at 18 weeks old (after ALA administration) to measure single urination amount, 24-hour urination amount, and water drinking amount. Here, the method based on Yono et al., Life Sci. 2007 Jun. 27; 81(3):218-222 (non-anesthetized, unrestrained, and day-and-night continuous measurement method of mouse urination function) was adopted as the measurement method with a metabolic cage. Note that before measurement of urination kinetics, body weight, blood pressure, and heart rate were measured as a caution in addition to the urination amount and water drinking amount. Moreover, when measuring urination kinetics, total number of urination was also measured.

[2] = test system: detrusor muscle / bladder of SHR rats; test: Cystometry (overactive status of the detrusor muscle); format: in vivo, rat; conditions: 18 weeks old male SHR under urethane anesthesia, after 6 weeks oral ALA 10 or 100 mg/kg with sodium ferrous citrate; vs group without ALA
Description: Note that cystometry verifies the overactive status of the detrusor muscle, and is established as a method for examining overactive bladder. (1) 18 weeks old male SHR/Hos rats and Wistar/ST rat are subjected to general anesthesia by urethane (1.0 g/kg, i.p.). (2) Each rat is laid down and the extremities are fixed with packaging tape. Laparotomy is then performed, and the bladder is pressed to allow urination. Absorbent cotton with saline is placed on top to prevent drying and left for 30 minutes. (3) A catheter for cystometry is inserted into the bladder of each rat. Here, the catheter is joined to a three-way stopcock, and one end is connected to a syringe pump to continuously infuse saline into the bladder at a constant speed (12 ml/hr). The other end is connected to a pressure transducer to monitor and amplify with a pressure amplifier, and incorporated into a personal computer via Powerlab system for recording. (4) Saline is then infused and left for about 30 minutes until stable. (5) Watch the wave form to collect single urine into a 1.5 ml tube, and the weight of urine is measured. (6) Residual urine of each rat is collected and the amount is measured. (7) Peaks at similar interval and height are consecutively taken 6 times (about 1 hour).

[3] = test system: bladder blood flow of SHR rats; test: Bladder blood flow measurement (hydrogen clearance method); format: in vivo, rat; conditions: male SHR after 6 weeks oral ALA 10 or 100 mg/kg with sodium ferrous citrate, vs control
Description: After said cystometry, bladder blood flow measurement (hydrogen clearance method) was performed according to the procedures below. (1) A silver chloride plate which is an indifferent electrode is buried under the precordium of each rat. (2) Wire platinum electrodes are incised into the bladder wall (three places in the bladder wall, data is collected 3 times each). (3) Blood flow is measured using UH-METER. Specifically, a hydrogen tank is opened to 0.3 L/min, and 100% hydrogen is directly inhaled with a funnel. Hydrogen is given until peaked, and hydrogen clearance curve is measured with the PowerLab system. The timepoint when the hydrogen clearance curve begins to drop is set at 0 second, and recording was performed for about 180 seconds. (4) The blood flow amount was calculated from the regression curve. * Half-life (T½) is determined from the regression curve Y=B−AX.

VEGF = VEGF ELISA in rat bladder tissue; format: in vivo; conditions: male SHR, oral ALA with sodium ferrous citrate as in Example 1, vs control group
Description: ALA administration to a subject and the change in the amount of VEGF expression was investigated. VEGF is a vascular endothelial growth factor, and is used as a marker of bladder vascular endothelial dysfunction.
(§1) Preparation of the experimental and control groups was carried out with the method and conditions similar to the method described in Example 1.
(§2) The bladder tissue of experimental and control groups were processed with the procedure below, and used as samples.
1. Wash 100 mg of tissue with 1×[…].
2. Homogenize with 500 μl of 1×PBS.
(§3) 3. Store overnight at −20° C.
(§4) 4. Carry out freeze-thawing to destroy cell membrane, and centrifuge at 5000 G for 5 min at 4° C.
(§5) 5. Dispense and store at −20° C. or −80° C.
(§6) 6. After thawing, centrifuge again and employ for assay.
ELISA assay was performed with Rat VEGF ELISA kit (CUSABIO CSB-E04757r) according to the protocol provided by the manufacturer.

MDA (Malondialdehyde) = test: MDA assay in rat bladder tissue; format: in vivo; conditions: male SHR, oral ALA with sodium ferrous citrate as in Example 1; vs control group
Description: ALA administration to a subject and the change in the amount of MDA expression was investigated. MDA is one of lipid peroxidative degradation products, and is known as a major marker of lipid peroxidation.
as §1, §2
1. Subject to biomasher with 400 μl of cold assay buffer.
2. Centrifuge at 15000 rpm for 5 min at 4° C. After centrifugation, add 300 μl of buffer to the supernatant and store on ice.
3. Correct with protein concentration.
ELISA assay was performed with Malondialdehyde Assay kit (NWK-MDA01) according to the protocol provided by the manufacturer.

NGF = NGF ELISA in rat bladder tissue; format: in vivo; conditions: male SHR, oral ALA with sodium ferrous citrate as in Example 1, vs control group
Description: ALA administration to a subject and the change in the amount of NGF expression was investigated. Since micturition reflex is enhanced when NGF increases in the bladder thus resulting in overactive bladder, NGF is employed as a lower urinary tract dysfunction marker.
as §1, §2
1. Wash 100 mg of tissue with 1×PBS.
2. Homogenize with 1 ml of 1×PBS.
as §3, §4, §5, §6
ELISA assay was performed with Rat NGF ELISA kit (CUSABIO CSB-E24685r) according to the protocol provided by the manufacturer.

Nrf2 = Nrf2 ELISA in rat bladder tissue; format: in vivo; conditions: male SHR, oral ALA with sodium ferrous citrate as in Example 1, vs control group
Description: ALA administration to a subject and the change in the amount of Nrf2 expression was investigated. Nrf2 is one of transcription factors that regulate the expression of antioxidant enzymes or detoxication metabolism enzymes to control oxidative stress, and is employed as an oxidative stress marker.
as §1, §2
1. Wash excess blood with PBS.
3. Place 600 μl of PBS on ice in a biomasher to finely mince tissue.
4. Perform ultrasonic wave treatment or freeze-thawing (−20° C./room temperature) 3 times.
5. Centrifuge at 5000 G for 5 minutes.
6. Move the supernatant to a new tube (measure protein concentration).
ELISA assay was performed with Rat NFE2L2/NRF2 ELISA kit (LSBio LS-F12145) according to the protocol provided by the manufacturer.

[4] = ALA 10 or 100 mg/kg with sodium ferrous citrate orally every day for 6 weeks

NCC(=O)CCC(=O)O [ALA, 5-aminolevulinic acid]
increase in single urination amount compared to the control group ([1]; ALA 10 or 100 mg/kg with sodium ferrous citrate 15.7 or 157 mg/kg orally every day for 6 weeks, measured at 18 weeks old): approximately 30% | 24-hour urination amount compared to the control group [1, 4]: increase in 24-hour urination amount | 24-hour water drinking amount [1, 4]: increase in water drinking amount | urination interval (cystometry) [2]: extension of urination interval | bladder blood flow amount [3]: tendency of bladder blood flow to increase ALA dosage-dependently | amount of VEGF expression in bladder tissue (VEGF): significantly reduced | amount of MDA expression in bladder tissue (MDA (Malondialdehyde)): significantly reduced | amount of NGF expression in bladder tissue (NGF): significantly reduced | amount of Nrf2 expression in bladder tissue (Nrf2): significantly reduced
